One test concerns LUAD-0087AS2 cells. Put plainly: Growth inhibition (alamarBlue, 96 h). It is filed as cell-based, human. The conditions noted are these: for raw viability signal (Source Data Fig. 3b-c): LUAD-0087AS2, replicate sets. In general terms: Alamar Blue is a resazurin reagent that responds to reducing activity.
The next test relates to Ba/F3-RET^M918T. Put plainly: Growth inhibition assay in Ba/F3 cells (CellTiter-Glo, 72 h). It is filed as cell-based. The conditions noted are these: Mus musculus, BaF3, 72 h, Ba/F3-RET^M918T, CellTiter-Glo, 72 h; read-out: GI50 value (Mean ± SD). For orientation: ATP-based viability assays read luminescence as a measure of living cells.
A further test relates to ECLC5B cells. Put plainly: Growth inhibition (alamarBlue, 96 h). It is filed as cell-based, human. The conditions noted are these: ECLC5B; for raw viability signal (Source Data Fig. 3b-c): replicates.

Molecules are shown by their SMILES. Several values for one entry are separate records, joined by “and”; a condition that tells them apart may be missing. Equal values may be shown once.

One may read the IC50 as the point on the concentration scale where inhibition reaches its midpoint. Usually GI50 stands for the concentration at which growth is held to half of that of the control. Take `COc1cc2c(Nc3ccc(Br)cc3F)ncnc2cc1OCC1CCN(C)CC1` [Vandetanib]: the IC50 in the test on LUAD-0087AS2 cells (Homo sapiens, read-out: IC50 for Inhibition of Growth (95% CI), LUAD-0087AS2, alamarBlue, 96 h) was determined as 264 nM; in the test on ECLC5B cells (Homo sapiens, read-out: IC50 for Inhibition of Growth (95% CI), alamarBlue, 96 h), 248 nM. Also, the “raw viability signal (Source Data Fig. 3b-c)” value (shortened to “raw viability signal”) with LUAD-0087AS2 cells (0.01 nM) was 12332.1 and 13934.5 and 13930.1; in the test on LUAD-0087AS2 cells (0.1 nM) it was 10316.9 and 14234.5 and 13979.9; with LUAD-0087AS2 cells (1 nM) it was 14707.2 and 14551.9 and 13357; in the test with LUAD-0087AS2 cells (10 nM), 9639.26 and 14042.7; in the test on LUAD-0087AS2 cells (100 nM) it was 8268.62 and 14329.9 and 11925.1; in the test on LUAD-0087AS2 cells (1000 nM) it was 3107.74 and 4188.25 and 2159.6 and 1975.84. The “raw viability signal” value in the test on LUAD-0087AS2 cells (10000 nM) is 1739.1 and 865.962 and 878.418 and 892.669; in the test on ECLC5B cells (0.01 nM), 9731.41 and 6613.39 and 26019.7; in the test on ECLC5B cells (0.1 nM) it was 10719.9 and 7303.21 and 26332.1; in the test on ECLC5B cells (1 nM) it was 7568.32 and 25576; in the test with ECLC5B cells (10 nM), 10376.5 and 7240.47 and 24146.6; with ECLC5B cells (100 nM), 8370.2 and 5534.52 and 20059.6. For the same compound, the “raw viability signal” value in the test on ECLC5B cells (1000 nM) was 1326.74 and 1175.68 and 3727.83; in the test on ECLC5B cells (10000 nM), 1185.45 and 1144.21 and 2595.71. Also, in the test with Ba/F3-RET^M918T, the GI50 was 39.9 ± 15.2 nM.

The record behind these values is article PMC10518257 (Nature Cancer, 2023).
